Assay results published in ChEMBL document CHEMBL1909046, “DrugMatrix in vitro pharmacology data”.

How the values were obtained:
[1] = molecular target: T1, Alpha-2A adrenergic receptor (Homo sapiens, UniProt P08913); type: cell membranes, Sf9, Membrane; further: in other assays of this panel Not Active means under 50% inhibition at 10 µM
T1 sequence (P08913 whole entry): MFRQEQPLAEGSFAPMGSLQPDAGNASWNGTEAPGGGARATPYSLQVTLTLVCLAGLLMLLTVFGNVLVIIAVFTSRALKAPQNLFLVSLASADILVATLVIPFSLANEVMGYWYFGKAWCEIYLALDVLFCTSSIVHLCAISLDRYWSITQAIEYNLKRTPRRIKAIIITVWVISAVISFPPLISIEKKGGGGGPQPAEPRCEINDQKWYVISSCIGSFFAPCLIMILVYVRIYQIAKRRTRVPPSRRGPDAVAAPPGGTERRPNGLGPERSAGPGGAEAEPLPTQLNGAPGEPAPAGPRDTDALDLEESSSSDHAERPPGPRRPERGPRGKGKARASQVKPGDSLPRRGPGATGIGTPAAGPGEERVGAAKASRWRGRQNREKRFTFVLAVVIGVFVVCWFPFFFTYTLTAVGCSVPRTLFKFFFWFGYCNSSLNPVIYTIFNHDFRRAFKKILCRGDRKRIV

[2] = DRUGMATRIX: Calcium Channel Type L, Phenylalkylamine radioligand binding (ligand: [3H] (-)-Desmethoxyverapamil (D-888)); type: cell membranes, Rattus norvegicus, Wistar, Brain, Membrane; conditions: Not Active = under 50% inhibition at 10 µM
[3] = molecular target: T2, Amine oxidase [flavin-containing] A (Homo sapiens, UniProt P21397); assay: DRUGMATRIX: Monoamine Oxidase MAO-A enzyme inhibition (substrate: Kynuramine); parameters: species or system BTI-TN-5B1-4; conditions: bti-tn-5b1-4; Not Active = under 50% inhibition at 10 µM
T2 sequence (P21397 whole entry): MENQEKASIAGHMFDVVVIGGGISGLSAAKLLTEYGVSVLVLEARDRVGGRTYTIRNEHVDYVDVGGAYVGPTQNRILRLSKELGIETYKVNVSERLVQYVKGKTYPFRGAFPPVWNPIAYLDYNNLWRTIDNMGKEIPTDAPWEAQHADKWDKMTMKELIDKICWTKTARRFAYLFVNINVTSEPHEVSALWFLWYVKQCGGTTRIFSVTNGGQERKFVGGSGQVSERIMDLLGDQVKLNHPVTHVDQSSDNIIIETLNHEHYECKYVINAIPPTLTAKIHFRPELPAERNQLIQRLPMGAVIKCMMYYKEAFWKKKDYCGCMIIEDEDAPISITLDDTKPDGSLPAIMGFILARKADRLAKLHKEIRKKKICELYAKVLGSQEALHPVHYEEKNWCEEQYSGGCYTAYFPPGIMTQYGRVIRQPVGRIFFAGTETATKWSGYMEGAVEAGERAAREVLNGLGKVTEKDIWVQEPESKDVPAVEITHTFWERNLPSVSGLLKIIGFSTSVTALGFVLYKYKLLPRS

[4] = molecular target: T3, Muscarinic acetylcholine receptor M2 (Homo sapiens, UniProt P08172); type: cell membranes, CHO-K1, Membrane; further: in other assays of this panel Not Active means under 50% inhibition at 10 µM
T3 sequence (P08172 whole entry): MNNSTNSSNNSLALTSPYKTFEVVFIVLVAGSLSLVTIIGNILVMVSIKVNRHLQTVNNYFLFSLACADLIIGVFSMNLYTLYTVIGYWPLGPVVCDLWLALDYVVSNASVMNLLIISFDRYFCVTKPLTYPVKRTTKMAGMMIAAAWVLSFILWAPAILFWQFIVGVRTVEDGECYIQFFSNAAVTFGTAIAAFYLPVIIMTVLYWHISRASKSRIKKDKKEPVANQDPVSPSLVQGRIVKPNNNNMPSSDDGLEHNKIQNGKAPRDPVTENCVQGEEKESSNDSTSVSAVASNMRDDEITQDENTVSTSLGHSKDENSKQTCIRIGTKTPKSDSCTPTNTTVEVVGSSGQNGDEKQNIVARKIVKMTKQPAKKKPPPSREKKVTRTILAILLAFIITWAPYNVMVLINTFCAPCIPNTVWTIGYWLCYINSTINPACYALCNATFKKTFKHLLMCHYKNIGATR

[5] = molecular target: T4, Interstitial collagenase (Homo sapiens, UniProt P03956); type: tissue-based, Rheumatoid synovial fibroblasts;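 further: MMP-1 enzyme inhibition assay using a peptide substrate; in other assays of this panel Not Active means under 50% inhibition at 10 µM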
T4 sequence (P03956 whole entry): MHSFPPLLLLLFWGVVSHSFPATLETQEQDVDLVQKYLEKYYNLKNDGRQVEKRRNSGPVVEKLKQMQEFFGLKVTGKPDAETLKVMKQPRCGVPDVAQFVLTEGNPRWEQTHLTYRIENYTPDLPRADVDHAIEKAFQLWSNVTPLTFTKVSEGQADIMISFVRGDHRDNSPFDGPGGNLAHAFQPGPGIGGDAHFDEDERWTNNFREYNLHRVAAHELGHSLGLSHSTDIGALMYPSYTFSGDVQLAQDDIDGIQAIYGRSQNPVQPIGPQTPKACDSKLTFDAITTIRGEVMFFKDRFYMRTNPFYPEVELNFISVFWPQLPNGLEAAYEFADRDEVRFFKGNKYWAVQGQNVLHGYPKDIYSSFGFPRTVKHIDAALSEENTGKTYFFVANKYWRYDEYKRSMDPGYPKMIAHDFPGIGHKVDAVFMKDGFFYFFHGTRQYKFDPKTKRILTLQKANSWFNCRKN

[6] = molecular target: T5, Adenosine receptor A3 (Homo sapiens, UniProt P0DMS8); type: cell membranes, CHO-K1, Membrane; conditions: cho-k1;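 further: radioligand binding assay with AB-MECA serving as the labeled ligand; in other assays of this panel Not Active means under 50% inhibition at 10 µM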
T5 sequence (P0DMS8 whole entry): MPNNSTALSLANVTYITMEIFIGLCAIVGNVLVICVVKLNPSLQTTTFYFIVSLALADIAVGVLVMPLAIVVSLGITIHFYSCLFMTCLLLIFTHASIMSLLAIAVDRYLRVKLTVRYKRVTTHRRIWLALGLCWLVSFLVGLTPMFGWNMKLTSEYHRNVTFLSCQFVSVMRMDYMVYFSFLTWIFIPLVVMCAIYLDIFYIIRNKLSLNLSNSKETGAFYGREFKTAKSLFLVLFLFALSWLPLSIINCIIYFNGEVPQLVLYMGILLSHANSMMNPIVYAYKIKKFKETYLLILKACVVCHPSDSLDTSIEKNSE

Compound | IC50 ([1]; sf9) | Ki ([1]; sf9) | IC50 [2] | Ki [2] | IC50 [3] | Ki [3] | IC50 ([4]; cho-k1) | Ki ([4]; cho-k1) | IC50 [5] | Ki [5] | IC50 [6] | Ki [6] | IC50 ([1]; read-out: IC50) | IC50 ([4]; read-out: IC50) | Ki ([4]; read-out: Ki) | IC50 ([1]; sf9, read-out: IC50) | Ki ([1]; sf9, read-out: Ki) | IC50 ([6]; read-out: IC50) | Ki ([6]; read-out: Ki)
O=[N+]([O-])c1cc([As](=O)(O)O)ccc1O [ROXARSONE] | Not Active | Not Active | Not Active | Not Active | Not Active | Not Active | Not Active | Not Active | Not Active | Not Active | Not Active | Not Active | – | – | – | – | – | – | –
CC1CN(c2cc3c(cc2F)c(=O)c(C(=O)O)cn3-c2ccc(F)cc2F)CCN1 (stereo unspecified) [TEMAFLOXACIN] | Not Active | – | Not Active | Not Active | Not Active | – | Not Active | – | Not Active | – | Not Active | – | – | – | – | – | – | – | –
COc1ccc(CCN2CCC(Nc3nc4ccccc4n3Cc3ccc(F)cc3)CC2)cc1 [ASTEMIZOLE] | – | – | – | – | Not Active | – | – | – | Not Active | – | – | – | – | – | – | – | – | – | –
CC1(C)[C@H]2CC[C@]1(C)C(=O)C2 [(-)-CAMPHOR] | Not Active | – | Not Active | Not Active | Not Active | – | Not Active | – | Not Active | – | Not Active | – | – | – | – | – | – | – | –
CC(CCc1ccccc1)NCC(O)c1ccc(O)c(C(N)=O)c1 (stereo unspecified) [LABETALOL] | Not Active | – | Not Active | Not Active | Not Active | – | Not Active | – | Not Active | – | Not Active | – | – | – | – | – | – | – | –
CN1[C@@H]2CC[C@H]1C[C@@H](OC(=O)c1c[nH]c3ccccc13)C2 [TROPISETRON] | Not Active | – | Not Active | Not Active | Not Active | – | Not Active | – | Not Active | – | Not Active | – | – | – | – | – | – | – | –
NC(=O)c1ncn([C@@H]2O[C@H](CO)[C@@H](O)[C@H]2O)n1 [RIBAVIRIN] | Not Active | – | Not Active | Not Active | Not Active | – | Not Active | – | Not Active | – | Not Active | – | – | – | – | – | – | – | –
O=C(CCCN1CCC(O)(c2ccc(Cl)cc2)CC1)c1ccc(F)cc1 [HALOPERIDOL] | – | – | – | – | Not Active | – | Not Active | – | Not Active | – | Not Active | – | – | – | – | – | – | – | –
CN(C)CCCN1c2ccccc2CCc2ccc(Cl)cc21 [CLOMIPRAMINE] | – | – | – | – | Not Active | – | – | – | Not Active | – | Not Active | – | 1410 nM | 241 nM | 86 nM | – | – | – | –
IVERMECTIN | – | – | Not Active | Not Active | Not Active | Not Active | Not Active | Not Active | Not Active | Not Active | – | – | – | – | – | 5840 nM | 2190 nM | 512 nM | 289 nM
